What was measured:
[1] = molecular target: T1, c-Myc353-437 (monomeric c-Myc bHLH-ZIP) (Homo sapiens, UniProt P01106); experiment: Fluorescence polarization titration, c-Myc bHLH-ZIP binding; settings: Table 1; FP of nitrobenzofurazan moiety, c-Myc353-437; read-out: KD (c-Myc affinity, bivalent)
T1 construct: recombinant monomeric c Myc bHLH-ZIP (amino acids 353-437); 6xHis with TEV site (N, cleaved yes); made in house; host or cells: E. coli BL21DE3(pLysS)
Text: (§1) A c-Myc353-437 full-length bHLH-ZIP domain and its truncated version c-Myc390-439 were produced from the c-Myc/pET SKB3 construct, kindly supplied by Dr. S. K. Nair (University of Illinois, Urbana-Champaign), by insertion into the pET151D vector, encoding an N-terminal hexahistidine (6× His), separated by a TEV protease digestion site, with the TOPO® ligation system, and over-expressed in E. coli BL21DE3(pLysS). The 6× His tagged human Max isoform p21, with low homodimerization affinity^70, cloned into the pQE10 vector (Qiagen, Inc.), was over-expressed in E. coli M15(pRep4). Bacterial cultures were grown at 37° C. in LB medium to OD600≈0.8, then induced with 0.5 mM IPTG for 5 hours. Proteins were purified by Ni-agarose chromatography with a pH gradient elution. The 6× His tag of c-MYC353-437 and c-Myc390-439 was cleaved using TEV protease (the TEV protease was expressed in a pET24 vector [courtesy of S. K. Nair] and purified by Ni-agarose chromatography under native conditions). All the proteins were further purified by HPLC and lyophilized. Protein concentrations were determined by measurement of OD280. The synthetic peptide c-Myc363-381 is described in Follis, A. V., Hammoudeh, D. I., Wang, H., Prochownik, E & Metallo, S. J. Structural rationale for the coupled binding and unfolding of the c-Myc oncoprotein by small molecules. Chemistry & Biology 15, 1149-1155 (2008).
Samples were analyzed in a Photon Technology International QuantaMaster fluorimeter (Birmingham, N.J.) equipped with polymer sheet polarizers. Titration experiments were performed upon serial dilution of 1:1 equimolar solution of inhibitor and either c-Myc353-437, c-Myc390-439 or c-Myc363-381 in a 1×PBS buffer (137 mM NaCl, 2.7 mM KCl, 4.3 mM Na2HPO4, 1.4 mM KH2PO4, pH=7.4), 5% DMSO, over concentrations ranging between 200 μM and 1.5 nM. Excitation and emission wavelengths were independently determined for each inhibitor. Reported data represent the average of at least three independent experiments. Data were fit to a quadratic equation derived from the thermodynamic expression of binding equilibrium:
[formula] where [C]0 represents the total concentration of inhibitor and of c-Myc peptide. The value of KD was determined from the experimental polarization data by fitting to Eq. 2 using KaleidaGraph (Synergy Software, Reading, Pa.) where pol0 is the polarization in the absence of binding and Δpol is the total change in polarization (Park, S. H. & Raines, R. T. Fluorescence polarization assay to quantify protein-protein interactions. Methods in Molecular Biology 261, 161-6 (2004)).
[formula] Due to the very tight binding of some of the tested compounds, it was impossible to perform a full binding titration with an acceptable fluorescence intensity, therefore the polo parameter was experimentally determined from samples of each compound in the absence of c-Myc353-437 at a concentration of 25 μM. Binding specificity experiments were performed by monitoring the FP of 10 μM inhibitors solutions in the above-described buffer in the presence of equimolar p21 Max. […] Circular Dichroism.
Also in this case the c-Myc binding affinity was little affected by the introduction of the linker chain (Table 1, FIG. 11).
We then measured the affinity of the synthesized bivalent inhibitors, by monitoring the FP of the compounds nitrobenzofurazan moiety. […] The estimated free energy of binding of the bivalent compounds was roughly proportional to the sum of those of their monovalent components. In the thermodynamic analysis of multivalent binding a ΔG^s term is used to relate the free energy of binding of a multivalent compound to the sum of those of its monovalent components. This term implies the diverse energy contributions resulting from the linking of independent binding components. The ΔG^s term generally constitutes a negative contribution to the binding affinity of distinct binding components connected by a flexible linker to a given target.

c-Myc 400-439 = molecular target: T2, c-Myc 400-439 (Homo sapiens, UniProt P01106); experiment: Fluorescence polarization titration, truncated c-Myc segment; settings: Table 2; segment with binding site of 2; read-out: Binding affinity to c-Myc 400-439
T2 construct: its truncated version c-Myc390-439 were produced from the c-Myc/pET SKB3 construct; 6xHis with TEV site (N, cleaved yes); made in house; host or cells: E. coli BL21DE3(pLysS)

c-Myc 363-381 = molecular target: T3, c-Myc 363-381 (Homo sapiens, UniProt P01106); experiment: Fluorescence polarization titration, truncated c-Myc peptide 363-381; settings: Table 2; segment with binding site of 1; read-out: Binding affinity to c-Myc 363-381
T3 construct: The synthetic peptide c-Myc363-381 is described in Follis; host or cells: synthetic peptide
Text: as §1, with “The synthetic peptide c-Myc363-381 is described in Follis, A. V., Hammoudeh, D. I., Wang, H., Prochownik, E & Metallo, S. J. Structural rationale for the coupled binding and unfolding of the c-Myc oncoprotein by small molecules. Chemistry & Biology 15, 1149-1155 (2008).” left out
Samples were analyzed in a Photon Technology International QuantaMaster fluorimeter (Birmingham, N.J.) equipped with polymer sheet polarizers. […] Excitation and emission wavelengths were independently determined for each inhibitor. […]

T1 sequence (P01106 368-452): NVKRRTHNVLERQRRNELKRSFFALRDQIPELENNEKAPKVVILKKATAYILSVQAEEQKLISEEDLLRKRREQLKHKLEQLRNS
T2 sequence (P01106 405-454): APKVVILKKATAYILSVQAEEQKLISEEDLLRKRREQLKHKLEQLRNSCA

Structure (SMILES)	Kd [1]	Kd (c-Myc 400-439)	Kd (c-Myc 363-381)
O=C1NC(=S)S/C1=C\c1ccc(C(=O)NCCCCCNC(=O)c2cccc(Nc3ccc([N+](=O)[O-])c4nonc34)c2)cc1 [compound 12, N-[5-({3-[(7-nitro-2,1,3-benzoxadiazol-4-yl)amino]phenyl}formamido)pentyl]-4-{[(5Z)-4-oxo-2-sulfanylidene-1,3-thiazolidin-5-ylidene]methyl}benzamide]	400 ± 100 nM	–	–
O=C1NC(=S)SC1=Cc1ccc(C(=O)NCCCCCNC(=O)c2ccc(Nc3ccc([N+](=O)[O-])c4nonc34)cc2)cc1 [compound 13]	4.7 ± 0.8 nM	53 ± 16 nM	0.8 ± 0.6 nM
CCc1ccc(/C=C2\SC(=O)N(CCCCCCNC(=O)c3ccccc3Nc3ccc([N+](=O)[O-])c4nonc34)C2=O)cc1 [compound 16, N-{6-[(5Z)-5-[(4-ethylphenyl)methylidene]-2,4-dioxo-1,3-thiazolidin-3-yl]hexyl}-2-[(7-nitro-2,1,3-benzoxadiazol-4-yl)amino]benzamide amine]	2.2 ± 0.2 nM	–	–
CCc1ccc(C=C2SC(=O)N(CCCCCCNC(=O)c3cccc(Nc4ccc([N+](=O)[O-])c5nonc45)c3)C2=O)cc1 [compound 17]	110 ± 20 nM	–	–

Source: US8637556B2, “Linked Myc-max small molecule inhibitors” (University of Pittsburgh—Of the Commonwealth System of …, priority 2009, dated 2014)
